Like-named read-outs stand apart in the source and are kept apart here.
What was measured:
[1] = Pharmacokinetic study in rats (plasma LC-MS/MS) after iv or oral VOC, oral VOC-P188 or oral VOC-β-CD; format: in vivo, Sprague Dawley rats; conditions: for AUC(0-t) / MRT last / Tmax / half-life / Cmax / bioavailability: male, Sprague-Dawley, rat, plasma; for MRT last: read-out: MRT0-t; for half-life: read-out: t1/2β (converted)
Procedure: The intravenous injection solution was prepared by dissolving 0.15 g of VOC in 25 ml water containing 3 ml 10% Tween-80 as solubilizer. The oral solution was prepared by dissolving 0.35 g of VOC in 25 ml normal saline containing 3 ml 10% Tween-80 as solubilizer. The VOC-P188 solution was prepared by mixing VOC-P188 5 g in 25 ml water with magnetic stirring apparatus. The VOC-β-CD solution was prepared by mixing VOC-β-CD 3.5 g in 25 ml water with magnetic stirring apparatus.
Twenty-four male SD rats (220 ~ 250 g) were randomly divided into four groups, 6 in each group. After fasting for 12 h before administration, the rats in group 1 were given VOC by tail vein injection at a dose of 30 mg/Kg, the rats at second group were oral administration of VOC solution, the dosage was 120 mg/Kg based on the mass of VOC. The rats at groups 3 and 4 were given VOC-P188 and VOC-β-CD, respectively.
Blood samples (0.3 ml) were collected from the eyes at 0.08, 0.17, 0.33, 0.5, 1, 1.5, 2, 4, 6, 8, 12 and 24 h after administration, and they were immediately transferred into a heparinized Eppendorf (EP) tube. The blood samples were then centrifuged at 13,000 r/min for 10 min. The plasma samples were stored at − 80 °C for later analysis.
The thawed plasma sample (0.1 ml) was transferred to another EP tube and 20 μl of DL, 50 μl of 2% formic acid and 500 μl of methanol were added. The mixture was vortexed for 2 min, and centrifuged at 13000 r/min for 10 min. The supernatant was transferred into a clean EP tube, and evaporated to dryness under a stream of nitrogen at 40 °C. The residue was dissolved in 100 μl of methanol. The supernatant was injected into the HPLC system.
An HPLC system consisting of a solvent-delivery system LC-30 AD, an autosampler SIL-30 AC, a column oven CTO-30 AC, a solvent degasser DGU-20A3, and a controller CBM-20A from […] was used in the study. Separation was conducted using a Shim-pack GIST C18-AQ HP column (2.1 mm × 100 mm, 3 μm). The column oven was maintained at 35 °C. The mobile phase was 0.1% formic acid in water as mobile phase A and acetonitrile as mobile phase B. The linear gradient elution program was set according to preliminary tests: 45–60% B, 0–2 min; 60–65% B, 2–6 min; 65–95% B, 6–7 min; 95–45% B, 7–9 min and 45% B, 9–10 min, with the flow rate kept at 0.3 ml/min. The injection volume was set at 2 μl.
The MS analysis was performed on a 4500 QTRAP™ system from Applied Biosystems (AB Sciex) equipped with Turbo V sources and Turbo Ion Spray™ (TIS) interface. Electrospray ionization was performed in positive mode. Ion source: electrospray ion source (ESI source); detection method: multiple reaction monitoring (MRM); ion source temperature: 500 °C; desolvent gas temperature: 550 °C; desolvent gas flow rate: 800 l/h. The detection ion pair, retention time, declustering voltage and collision energy of each index component and internal standard were shown in Table 2.
The plasma SA, NBP, NOL, ZL and BP concentrations were evaluated using the equation from the standard curves that were run with each batch of samples. The plasma concentration-time data were analyzed with the Drug and Statistics 2.0 software package to determine the pharmacokinetic parameters. The observed Cmax value was obtained from the observed data and the observed AUC0 → t value was calculated using the trapezoidal rule. The absolute bioavailability of VOC and the relative bioavailability of VOC-P188 and VOC-β-CD were calculated, the formula for calculating absolute bioavailability (F1) and relative bioavailability (F2): F1=AUCpo×Div/AUCiv×Dpo×100% […]
Where AUC is the area under the temporal curve of blood drug concentration (μg/l*h), D is administration dosage (mg/kg); the subscripts iv and po are injection and oral administration, respectively; the subscript R is reference drug (VOC); the subscript T is solid dispersion or inclusion compound.

[2] = Stability test of VOC-P188 and VOC-β-CD (temperature, illumination); format: physicochemical
[3] = VOC iv 30 mg/kg, rat plasma, n = 6
[4] = VOC po 120 mg/kg, rat plasma, n = 6
[5] = VOC-P188 solid dispersion po vs VOC po, rats
[6] = VOC-P188 solid dispersion po, rat plasma, n = 6
[7] = VOC-β-CD inclusion compound po vs VOC po, rats
[8] = VOC-β-CD inclusion compound po, rat plasma, n = 6
[9] = iv, 30 mg/kg, VOC iv 30 mg/kg, rat plasma, n = 6
[10] = iv, 30 mg/kg, VOC iv 30 mg/kg, rat plasma, n = 6, read-out: Tmax
[11] = iv, 30 mg/kg, VOC iv (tail vein) 30 mg/kg, rat plasma, n = 6
[12] = po, 120 mg/kg, VOC po 120 mg/kg, rat plasma, n = 6
[13] = po, 120 mg/kg, VOC po 120 mg/kg, rat plasma, n = 6, read-out: Tmax
[14] = po, 120 mg/kg, VOC po vs VOC iv, rats, read-out: F1 (absolute bioavailability)
[15] = po, VOC-P188 and VOC-β-CD po, rats, read-out: bioavailability in the two preparations
[16] = po, VOC-P188 solid dispersion po, rat plasma, n = 6
[17] = po, VOC-P188 solid dispersion po, rat plasma, n = 6, read-out: Tmax
[18] = po, VOC-β-CD inclusion compound po, rat plasma, n = 6
[19] = po, VOC-β-CD inclusion compound po, rat plasma, n = 6, read-out: Tmax

Structure (SMILES): CCCC[C@@H]1OC(=O)c2ccccc21 [NBP, N-butylphthalide, reference compound]
- t1/2α [1, 3]: 0.06 ± 0.04 h
- t1/2α [1, 4]: 0.26 ± 0.10 h
- F2 (relative bioavailability) [1, 5]: 197.67%
- t1/2α [1, 6]: 2.82 ± 1.55^** h
- F2 (relative bioavailability) [1, 7]: 198.39%
- t1/2α [1, 8]: 3.95 ± 1.96^** h
- AUC(0-t) [1, 9]: 0.0546 ± 0.0165 µg·h/mL
- MRT last [1, 9]: 32.4 ± 13.2 min
- Tmax [1, 10]: 4.98 min
- half-life [1, 9]: 15.6 ± 9 min
- Cmax [1, 11]: 0.196 ± 0.0645 µg/mL
- AUC(0-t) [1, 12]: 0.0361 ± 0.00758 µg·h/mL
- Cmax [1, 12]: 0.0259 ± 0.0083 µg/mL
- MRT last [1, 12]: 162 ± 28.2 min
- Tmax [1, 13]: 28.2 ± 4.2 min
- half-life [1, 12]: 39 ± 44.4 min
- bioavailability [1, 14]: < 25%
- Tmax ([1]; po, 120 mg/kg, after oral administration of VOC, rats, read-out: Tmax (time of peak concentration)): < 30 min
- bioavailability [1, 15]: < 50%
- AUC(0-t) [1, 16]: 0.0727 ± 0.0098 µg·h/mL
- Cmax [1, 16]: 0.0235 ± 0.00159 µg/mL
- MRT last [1, 16]: 244 ± 27.6 min
- Tmax [1, 17]: 19.2 ± 12 min
- half-life [1, 16]: 188 ± 60.6 min
- AUC(0-t) [1, 18]: 0.0761 ± 0.0246 µg·h/mL
- Cmax [1, 18]: 0.0224 ± 0.00556 µg/mL
- MRT last [1, 18]: 317 ± 62.4 min
- Tmax [1, 19]: 49.8 ± 15.6 min
- half-life [1, 18]: 263 ± 109 min

Structure (SMILES): CCCC[C@@H]1OC(=O)C2=CCCC[C@H]21 [NOL, Neocnidilide]
- t1/2α [1, 3]: 0.04 ± 0.04 h
- t1/2α [1, 4]: 0.46 ± 0.67 h
- F2 (relative bioavailability) [1, 5]: 258.18%
- t1/2α [1, 6]: 4.21 ± 4.29^* h
- F2 (relative bioavailability) [1, 7]: 218.01%
- t1/2α [1, 8]: 3.21 ± 2.44 h
- AUC(0-t) [1, 9]: 0.505 ± 0.152 µg·h/mL
- MRT last [1, 9]: 47.4 ± 10.2 min
- Tmax [1, 10]: 4.98 min
- half-life [1, 9]: 18 ± 6.6 min
- Cmax [1, 11]: 1.38 ± 0.335 µg/mL
- AUC(0-t) [1, 12]: 0.442 ± 0.0452 µg·h/mL
- Cmax [1, 12]: 0.223 ± 0.0713 µg/mL
- MRT last [1, 12]: 205 ± 34.2 min
- Tmax [1, 13]: 10.8 ± 7.2 min
- half-life [1, 12]: 186 ± 131 min
- bioavailability [1, 14]: < 25%
- bioavailability [1, 15]: < 50%
- AUC(0-t) [1, 16]: 1.14 ± 0.0639 µg·h/mL
- Cmax [1, 16]: 0.244 ± 0.131 µg/mL
- MRT last [1, 16]: 457 ± 34.2 min
- Tmax [1, 17]: 25.2 ± 27 min
- half-life [1, 16]: 530 ± 110 min
- AUC(0-t) [1, 18]: 0.945 ± 0.085 µg·h/mL
- Cmax [1, 18]: 0.134 ± 0.0243 µg/mL
- MRT last [1, 18]: 490 ± 33 min
- Tmax [1, 19]: 40.2 ± 15.6 min
- half-life [1, 18]: 586 ± 163 min

Structure (SMILES): CCCCC1OC(=O)C2=C1CCC=C2 (stereo not drawn) [SA, senkyunolide A]
- content decreased by ([2]; in VOC-P188, 60 °C for 10 days): 15.8%
- content decreased by ([2]; in VOC-β-CD, 60 °C for 10 days): 9.0%
- t1/2α [1, 3]: 0.09 ± 0.05 h
- t1/2α [1, 4]: 1.31 ± 1.58 h
- F2 (relative bioavailability) [1, 5]: 185.82%
- t1/2α [1, 6]: 1.50 ± 1.59 h
- F2 (relative bioavailability) [1, 7]: 138.69%
- t1/2α [1, 8]: 2.34 ± 1.24 h
- AUC(0-t) [1, 9]: 1.37 ± 0.315 µg·h/mL
- MRT last [1, 9]: 43.2 ± 4.8 min
- Tmax [1, 10]: 4.98 min
- half-life [1, 9]: 46.8 ± 39.6 min
- Cmax [1, 11]: 3.43 ± 0.557 µg/mL
- AUC(0-t) [1, 12]: 1.26 ± 0.274 µg·h/mL
- Cmax [1, 12]: 0.631 ± 0.31 µg/mL
- MRT last [1, 12]: 251 ± 29.4 min
- Tmax [1, 13]: 11.4 ± 6 min
- half-life [1, 12]: 227 ± 84 min
- bioavailability [1, 14]: < 25%
- bioavailability [1, 15]: < 50%
- AUC(0-t) [1, 16]: 2.36 ± 0.351 µg·h/mL
- Cmax [1, 16]: 0.701 ± 0.349 µg/mL
- MRT last [1, 16]: 387 ± 57.6 min
- Tmax [1, 17]: 12 ± 9.6 min
- half-life [1, 16]: 434 ± 154 min
- AUC(0-t) [1, 18]: 1.83 ± 0.532 µg·h/mL
- Cmax [1, 18]: 0.399 ± 0.0683 µg/mL
- MRT last [1, 18]: 373 ± 90.6 min
- Tmax [1, 19]: 30 ± 15.6 min
- half-life [1, 18]: 179 ± 34.2 min

Reference: paper PMC8063472, “Pharmacokinetics of five phthalides in volatile oil of Ligusticum sinense Oliv.cv. Chaxiong, and comparison study on physicochemistry and pharmacokinetics after being formulated into solid dispersion and inclusion compound” (BMC Complementary Medicine and Therapies, 2021)
